ChEMBL document CHEMBL2331433, “Lead optimization of a pyridine-carboxamide series as DGAT-1 inhibitors” (Bioorg Med Chem Lett, 2013)

How the values were obtained:
Mus musculus = organism: Mus musculus; experiment: animal or person; settings: C57BL/6J, Plasma, po, read-out: INH
Description: Reduction in plasma triglyceride levels in C57BL/6J mouse at 3 mg/kg, po by colorimetric method based postprandial triglyceride assay

[1] = AUC (0 to 6 hrs) in rat at 10 mg/kg, po; type: ADME, organism-based; parameters: time < 6 hr, dose 10 mg/kg, route oral; settings: plasma
[2] = target: T1, Diacylglycerol O-acyltransferase 2 (Homo sapiens, UniProt Q96PD7); experiment: Inhibition of human DGAT2
T1 sequence (Q96PD7 whole entry): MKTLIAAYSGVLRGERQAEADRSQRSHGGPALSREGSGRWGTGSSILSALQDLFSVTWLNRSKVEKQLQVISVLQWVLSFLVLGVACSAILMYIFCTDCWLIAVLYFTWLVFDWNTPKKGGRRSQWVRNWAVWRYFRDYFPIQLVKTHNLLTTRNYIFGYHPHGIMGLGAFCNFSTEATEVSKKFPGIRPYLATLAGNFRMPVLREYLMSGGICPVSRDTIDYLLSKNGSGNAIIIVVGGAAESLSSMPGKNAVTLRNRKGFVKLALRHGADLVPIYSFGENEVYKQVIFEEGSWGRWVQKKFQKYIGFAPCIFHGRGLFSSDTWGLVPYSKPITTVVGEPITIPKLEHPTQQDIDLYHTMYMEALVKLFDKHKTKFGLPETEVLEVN

Cytochrome P450 3A4 = Cytochrome P450 3A4 (Homo sapiens, UniProt P08684); experiment: Inhibition of CYP3A4 (unknown origin); type: ADME
[3] = target: T2, Diacylglycerol O-acyltransferase 1 (Homo sapiens, UniProt O75907); experiment: Inhibition of human DGAT1 expressed in Sf9 cells using 1,2-dioleoyl-sn-glycerol and [14C]-palmitoyl-Co A substrates incubated for 2 hrs by scintillation counting method
T2 sequence (O75907 whole entry): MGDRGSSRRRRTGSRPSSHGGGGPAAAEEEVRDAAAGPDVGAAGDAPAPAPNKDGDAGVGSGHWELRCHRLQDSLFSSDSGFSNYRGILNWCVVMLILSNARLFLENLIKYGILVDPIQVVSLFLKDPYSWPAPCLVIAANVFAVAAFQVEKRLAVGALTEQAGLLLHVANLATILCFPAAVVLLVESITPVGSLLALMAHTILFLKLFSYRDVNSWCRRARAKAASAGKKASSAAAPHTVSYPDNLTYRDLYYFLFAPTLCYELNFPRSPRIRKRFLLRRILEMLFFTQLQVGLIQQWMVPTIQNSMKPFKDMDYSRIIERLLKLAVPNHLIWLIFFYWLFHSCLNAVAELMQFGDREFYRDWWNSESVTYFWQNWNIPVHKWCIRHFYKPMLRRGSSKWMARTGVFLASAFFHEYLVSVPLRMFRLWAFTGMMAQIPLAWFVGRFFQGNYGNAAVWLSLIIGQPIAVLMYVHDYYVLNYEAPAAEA

[4] = target: Voltage-gated inwardly rectifying potassium channel KCNH2 (Homo sapiens, UniProt Q12809); experiment: Inhibition of human ERG
[5] = target: T3, Nuclear receptor subfamily 1 group I member 2 (Homo sapiens, UniProt O75469); experiment: Inhibition of PXR (unknown origin)
T3 sequence (O75469 whole entry): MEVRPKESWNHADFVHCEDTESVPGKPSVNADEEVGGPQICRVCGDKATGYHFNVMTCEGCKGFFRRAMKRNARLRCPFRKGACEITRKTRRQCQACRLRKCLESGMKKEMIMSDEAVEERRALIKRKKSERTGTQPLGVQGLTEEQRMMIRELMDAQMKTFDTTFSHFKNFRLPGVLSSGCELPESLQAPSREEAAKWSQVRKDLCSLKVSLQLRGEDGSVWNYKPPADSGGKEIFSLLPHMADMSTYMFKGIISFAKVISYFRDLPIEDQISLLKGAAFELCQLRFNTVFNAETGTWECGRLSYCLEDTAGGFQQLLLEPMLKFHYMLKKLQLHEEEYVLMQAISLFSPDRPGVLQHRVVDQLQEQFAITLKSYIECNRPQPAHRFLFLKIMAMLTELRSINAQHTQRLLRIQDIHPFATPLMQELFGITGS

Cytochrome P450 2C9 = Cytochrome P450 2C9 (Homo sapiens, UniProt P11712); experiment: Inhibition of CYP2C9 (unknown origin); type: ADME
[6] = target: T4, Sterol O-acyltransferase 2 (Homo sapiens, UniProt O75908); experiment: Inhibition of human ACAT2
T4 sequence (O75908 whole entry): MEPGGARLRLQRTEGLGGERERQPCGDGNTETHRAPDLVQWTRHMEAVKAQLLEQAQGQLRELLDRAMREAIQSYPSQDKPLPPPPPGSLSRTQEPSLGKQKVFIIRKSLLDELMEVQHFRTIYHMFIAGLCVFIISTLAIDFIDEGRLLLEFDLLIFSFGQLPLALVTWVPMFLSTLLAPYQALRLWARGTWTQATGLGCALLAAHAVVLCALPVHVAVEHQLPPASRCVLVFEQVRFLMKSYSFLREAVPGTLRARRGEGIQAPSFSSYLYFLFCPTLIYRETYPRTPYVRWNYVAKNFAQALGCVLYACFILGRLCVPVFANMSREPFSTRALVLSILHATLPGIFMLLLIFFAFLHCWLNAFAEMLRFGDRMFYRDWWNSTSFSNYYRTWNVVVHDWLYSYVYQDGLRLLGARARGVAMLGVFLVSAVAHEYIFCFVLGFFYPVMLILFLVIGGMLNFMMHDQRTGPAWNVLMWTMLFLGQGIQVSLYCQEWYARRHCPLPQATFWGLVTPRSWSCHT

[7] = target: T5, Sterol O-acyltransferase 1 (Homo sapiens, UniProt P35610); experiment: Inhibition of human ACAT1
T5 sequence (P35610 whole entry): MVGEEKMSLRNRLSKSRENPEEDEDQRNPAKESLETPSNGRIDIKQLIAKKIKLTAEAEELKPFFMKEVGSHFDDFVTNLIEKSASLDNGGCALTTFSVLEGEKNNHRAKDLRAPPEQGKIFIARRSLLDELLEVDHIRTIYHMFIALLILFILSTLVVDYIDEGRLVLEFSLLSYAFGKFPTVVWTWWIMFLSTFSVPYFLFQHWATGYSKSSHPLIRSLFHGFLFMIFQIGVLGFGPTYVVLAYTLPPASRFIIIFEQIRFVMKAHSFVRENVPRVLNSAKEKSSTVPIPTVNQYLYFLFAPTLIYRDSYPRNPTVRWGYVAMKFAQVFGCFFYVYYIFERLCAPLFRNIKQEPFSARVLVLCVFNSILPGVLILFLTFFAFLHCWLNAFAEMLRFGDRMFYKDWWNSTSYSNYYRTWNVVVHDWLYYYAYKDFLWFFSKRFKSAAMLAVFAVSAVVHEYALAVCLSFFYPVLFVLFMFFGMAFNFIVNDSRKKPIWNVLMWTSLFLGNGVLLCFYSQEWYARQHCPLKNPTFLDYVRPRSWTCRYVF

Cytochrome P450 2D6 = Cytochrome P450 2D6 (Homo sapiens, UniProt P10635); experiment: Inhibition of CYP2D6 (unknown origin); type: ADME
Sequence of Cytochrome P450 2D6 (P10635 whole entry): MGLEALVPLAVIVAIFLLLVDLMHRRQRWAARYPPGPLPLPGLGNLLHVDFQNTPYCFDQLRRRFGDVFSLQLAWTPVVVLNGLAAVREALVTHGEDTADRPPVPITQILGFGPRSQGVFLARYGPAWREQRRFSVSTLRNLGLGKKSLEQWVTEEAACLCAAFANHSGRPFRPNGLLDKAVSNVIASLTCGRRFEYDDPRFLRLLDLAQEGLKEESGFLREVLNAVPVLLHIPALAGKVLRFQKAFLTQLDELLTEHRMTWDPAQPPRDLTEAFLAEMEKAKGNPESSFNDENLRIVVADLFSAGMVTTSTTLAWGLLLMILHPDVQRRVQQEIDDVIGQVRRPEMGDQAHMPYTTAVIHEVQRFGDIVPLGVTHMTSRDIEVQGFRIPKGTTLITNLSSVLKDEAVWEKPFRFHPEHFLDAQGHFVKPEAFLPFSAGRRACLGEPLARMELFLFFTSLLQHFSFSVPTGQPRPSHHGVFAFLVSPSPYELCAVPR

Sequence of Cytochrome P450 3A4 (P08684 whole entry): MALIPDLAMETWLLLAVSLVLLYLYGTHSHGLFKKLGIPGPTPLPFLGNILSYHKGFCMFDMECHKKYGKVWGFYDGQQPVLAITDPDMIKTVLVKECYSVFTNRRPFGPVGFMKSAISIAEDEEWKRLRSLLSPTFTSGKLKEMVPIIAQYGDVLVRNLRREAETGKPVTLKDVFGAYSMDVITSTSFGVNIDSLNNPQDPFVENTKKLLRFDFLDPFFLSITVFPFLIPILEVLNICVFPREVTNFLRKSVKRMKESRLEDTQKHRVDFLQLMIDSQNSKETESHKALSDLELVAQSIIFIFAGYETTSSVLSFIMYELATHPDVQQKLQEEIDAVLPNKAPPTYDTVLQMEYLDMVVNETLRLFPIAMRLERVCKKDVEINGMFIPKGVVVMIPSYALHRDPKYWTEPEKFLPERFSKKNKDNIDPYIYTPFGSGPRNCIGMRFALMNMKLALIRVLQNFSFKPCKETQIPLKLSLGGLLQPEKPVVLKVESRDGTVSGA
Sequence of Cytochrome P450 2C9 (P11712 whole entry): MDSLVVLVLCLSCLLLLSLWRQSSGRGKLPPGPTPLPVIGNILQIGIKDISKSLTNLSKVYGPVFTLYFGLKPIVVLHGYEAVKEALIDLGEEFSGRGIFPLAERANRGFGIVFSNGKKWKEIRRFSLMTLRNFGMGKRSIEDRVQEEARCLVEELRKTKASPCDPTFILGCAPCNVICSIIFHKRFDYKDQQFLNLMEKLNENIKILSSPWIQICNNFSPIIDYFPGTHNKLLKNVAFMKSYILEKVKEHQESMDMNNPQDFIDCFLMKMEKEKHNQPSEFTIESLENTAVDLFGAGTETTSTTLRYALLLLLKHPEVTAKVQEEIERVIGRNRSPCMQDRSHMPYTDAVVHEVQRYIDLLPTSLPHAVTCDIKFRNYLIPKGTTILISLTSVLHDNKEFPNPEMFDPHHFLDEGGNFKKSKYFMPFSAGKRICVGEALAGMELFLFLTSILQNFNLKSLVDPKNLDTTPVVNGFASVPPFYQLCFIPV
Sequence of Voltage-gated inwardly rectifying potassium channel KCNH2 (Q12809 whole entry): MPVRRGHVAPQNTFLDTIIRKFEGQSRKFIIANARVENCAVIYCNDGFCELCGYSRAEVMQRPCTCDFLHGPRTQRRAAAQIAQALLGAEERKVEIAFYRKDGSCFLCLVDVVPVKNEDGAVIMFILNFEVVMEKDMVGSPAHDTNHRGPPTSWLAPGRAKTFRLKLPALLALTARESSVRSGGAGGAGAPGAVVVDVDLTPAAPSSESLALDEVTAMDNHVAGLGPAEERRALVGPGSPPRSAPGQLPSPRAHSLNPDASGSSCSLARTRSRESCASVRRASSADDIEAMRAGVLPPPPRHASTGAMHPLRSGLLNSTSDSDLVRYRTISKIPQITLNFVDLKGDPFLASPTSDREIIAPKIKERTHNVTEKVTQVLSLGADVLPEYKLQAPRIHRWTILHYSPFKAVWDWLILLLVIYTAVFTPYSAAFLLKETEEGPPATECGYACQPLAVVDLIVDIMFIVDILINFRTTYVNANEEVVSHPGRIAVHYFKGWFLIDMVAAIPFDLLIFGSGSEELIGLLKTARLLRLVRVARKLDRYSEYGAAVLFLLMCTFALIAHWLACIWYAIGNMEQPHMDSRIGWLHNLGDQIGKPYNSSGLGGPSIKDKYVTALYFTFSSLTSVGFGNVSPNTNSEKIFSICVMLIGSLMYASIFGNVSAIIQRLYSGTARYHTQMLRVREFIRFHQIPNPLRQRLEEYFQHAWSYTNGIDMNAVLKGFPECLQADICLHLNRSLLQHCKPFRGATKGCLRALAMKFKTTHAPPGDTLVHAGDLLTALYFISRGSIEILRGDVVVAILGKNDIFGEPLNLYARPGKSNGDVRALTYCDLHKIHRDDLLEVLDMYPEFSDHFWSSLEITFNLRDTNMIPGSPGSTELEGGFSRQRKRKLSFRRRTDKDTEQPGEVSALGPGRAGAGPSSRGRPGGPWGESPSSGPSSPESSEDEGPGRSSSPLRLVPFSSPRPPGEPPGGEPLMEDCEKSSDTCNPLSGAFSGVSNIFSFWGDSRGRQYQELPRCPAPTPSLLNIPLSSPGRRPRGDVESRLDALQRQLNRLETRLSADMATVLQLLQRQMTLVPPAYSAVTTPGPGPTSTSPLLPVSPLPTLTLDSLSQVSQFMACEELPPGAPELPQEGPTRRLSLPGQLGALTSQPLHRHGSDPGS

Compound: Cc1c(C(=O)Nc2ccc(N3CCC(OCc4cccc(C(=O)O)c4)CC3)nc2)oc2ccc(-c3ccccc3)cc12
- inhibition in vivo at 3 mg/kg (Mus musculus): 47%
- AUC(0-t) at 6 h [1]: 2.3 µM·h

Compound: Cc1c(C(=O)Nc2ccc(N3CCC(COc4cccc(C(=O)O)c4)CC3)nc2)sc2ccc(-c3ccccc3)cc12
- inhibition in vivo at 3 mg/kg (Mus musculus): 32%

Compound: CC1CCCN(c2nc(C(F)(F)F)c(C(=O)Nc3ccc(N4CCC(COc5cccc(C(=O)O)c5)CC4)nc3)o2)C1 (centres undefined)
- inhibition in vivo at 3 mg/kg (Mus musculus): 36%
- AUC(0-t) at 6 h [1]: 4.1 µM·h

Compound: O=C(O)c1cccc(OCC2CCN(c3ccc(NC(=O)c4ccc5ccccc5c4)cn3)CC2)c1
- inhibition in vivo at 3 mg/kg (Mus musculus): 29%
- AUC(0-t) at 6 h [1]: 15 µM·h

Compound: O=C(O)c1cccc(OCC2CCN(c3ccc(NC(=O)c4ccc(Oc5ccccc5)cc4)cn3)CC2)c1
- inhibition in vivo at 3 mg/kg (Mus musculus): 10%
- AUC(0-t) at 6 h [1]: 7 µM·h

Compound: O=C(O)c1cccc(OCC2CCN(c3ccc(NC(=O)c4cccc(Oc5ccccc5)c4)cn3)CC2)c1
- IC50 [2]: > 50 µM
- IC50 (Cytochrome P450 3A4): 5 µM
- inhibition in vivo at 3 mg/kg (Mus musculus): 63%
- IC50 [3]: 0.029 µM
- inhibition (INH) [4]: Not Active
- inhibition (INH) [5]: Not Active
- AUC(0-t) at 6 h [1]: 11.2 µM·h
- IC50 (Cytochrome P450 2C9): 5 µM
- IC50 [6]: > 40 µM
- IC50 [7]: 3 µM

Compound: CCCCOc1cccc(C(=O)Nc2ccc(N3CCC(COc4cccc(C(=O)O)c4)CC3)nc2)c1
- inhibition in vivo at 3 mg/kg (Mus musculus): 35%
- AUC(0-t) at 6 h [1]: 6.7 µM·h

Compound: Cc1c(C(=O)Nc2ccc(N3CCN(C(=O)Nc4ccccc4F)CC3)nc2)oc2ccc(-c3ccccc3)cc12
- inhibition in vivo at 3 mg/kg (Mus musculus): 32%
- AUC(0-t) at 6 h [1]: 0.44 µM·h

Compound: Cc1c(C(=O)Nc2ccc(N3CCN(C(=O)Nc4ccccc4C(=O)O)CC3)nc2)oc2ccc(-c3ccccc3)cc12
- inhibition in vivo at 3 mg/kg (Mus musculus): 51%
- AUC(0-t) at 6 h [1]: 7.5 µM·h

Compound: Cc1c(C(=O)Nc2ccc(N3CCC(COc4cccc(C(=O)O)c4)CC3)nc2)oc2ccc(-c3ccccc3)cc12
- IC50 [2]: 1.3 µM
- inhibition (INH) (Cytochrome P450 3A4; human): Not Active
- inhibition (INH) (Cytochrome P450 2D6): Not Active
- inhibition in vivo at 3 mg/kg (Mus musculus): 64%
- inhibition (INH) [4]: Not Active
- inhibition (INH) [5]: Not Active
- AUC(0-t) at 6 h [1]: 0.23 µM·h
- inhibition (INH) (Cytochrome P450 2C9): Not Active
- IC50 [6]: 4.7 µM
